# According to US20050197350A1, “Novel quinoline, tetrahydroquinazoline, and pyrimidine derivatives and methods of treatment related to the use thereof” (TAISHO PHARMACEUTICAL CO., LTD., priority 2003, published 2005):
# Tested on: MCH receptors
# Experiment: MCH receptor activity class (method not given)
# Details: class by percent of control at 10^-7 M or IC50
row,SMILES,class
1,COc1ccc(F)cc1CNC[C@H]1CC[C@@H](Nc2cc(N(C)C)c3ccccc3n2)CC1 [compound 1173],3 (Class 3 The value of percent of control at 10^−7 M was more than 60% or the value of IC50 was more than 200 nM.)
2,CCOc1cc(OCC)c(OCC)cc1CNC[C@H]1CC[C@@H](Nc2cc(N(C)C)c3ccccc3n2)CC1 [compound 1174],2 (Class 2: The value of percent of control at 10^−7 M was from 40% to 60% or the value of IC′50 was from 50 nM to 200 nM.)
3,COc1cc(OC)c(OC)cc1CNC[C@H]1CC[C@@H](Nc2cc(N(C)C)c3ccccc3n2)CC1 [compound 1175],2 (Class 2: The value of percent of control at 10^−7 M was from 40% to 60% or the value of IC′50 was from 50 nM to 200 nM.)
4,COc1cccc(CNC[C@H]2CC[C@@H](Nc3cc(N(C)C)c4ccccc4n3)CC2)c1OC [compound 1176],3 (Class 3 The value of percent of control at 10^−7 M was more than 60% or the value of IC50 was more than 200 nM.)
5,C=CCOc1ccccc1CNC[C@H]1CC[C@@H](Nc2cc(N(C)C)c3ccccc3n2)CC1 [compound 1177],2 (Class 2: The value of percent of control at 10^−7 M was from 40% to 60% or the value of IC′50 was from 50 nM to 200 nM.)
6,CN(C)c1cc(N[C@H]2CC[C@@H](CNCc3csc4ccccc34)CC2)nc2ccccc12 [compound 1178],3 (Class 3 The value of percent of control at 10^−7 M was more than 60% or the value of IC50 was more than 200 nM.)
7,CN(C)c1cc(N[C@H]2CC[C@@H](CNCc3cn(C)c4ccccc34)CC2)nc2ccccc12 [compound 1179],3 (Class 3 The value of percent of control at 10^−7 M was more than 60% or the value of IC50 was more than 200 nM.)
8,Cc1ccc(CNC[C@H]2CC[C@@H](Nc3cc(N(C)C)c4ccccc4n3)CC2)s1 [compound 1180],3 (Class 3 The value of percent of control at 10^−7 M was more than 60% or the value of IC50 was more than 200 nM.)
9,Cc1cc(C)c(CNC[C@H]2CC[C@@H](Nc3cc(N(C)C)c4ccccc4n3)CC2)c(C)c1 [compound 1181],3 (Class 3 The value of percent of control at 10^−7 M was more than 60% or the value of IC50 was more than 200 nM.)
10,CN(C)c1cc(N[C@H]2CC[C@@H](CNCc3ccc4c(c3)OCO4)CC2)nc2ccccc12 [compound 1182],3 (Class 3 The value of percent of control at 10^−7 M was more than 60% or the value of IC50 was more than 200 nM.)
11,CN(C)c1cc(N[C@H]2CC[C@@H](CNCc3ccsc3)CC2)nc2ccccc12 [compound 1183],3 (Class 3 The value of percent of control at 10^−7 M was more than 60% or the value of IC50 was more than 200 nM.)
12,Cc1cccc(CNC[C@H]2CC[C@@H](Nc3cc(N(C)C)c4ccccc4n3)CC2)c1 [compound 1184],3 (Class 3 The value of percent of control at 10^−7 M was more than 60% or the value of IC50 was more than 200 nM.)
13,Cc1ccccc1CNC[C@H]1CC[C@@H](Nc2cc(N(C)C)c3ccccc3n2)CC1 [compound 1185],3 (Class 3 The value of percent of control at 10^−7 M was more than 60% or the value of IC50 was more than 200 nM.)
14,Cc1ccc(CNC[C@H]2CC[C@@H](Nc3cc(N(C)C)c4ccccc4n3)CC2)cc1 [compound 1186],3 (Class 3 The value of percent of control at 10^−7 M was more than 60% or the value of IC50 was more than 200 nM.)
15,CN(C)c1cc(N[C@H]2CC[C@@H](CNCc3cc(Cl)cc(Cl)c3)CC2)nc2ccccc12 [compound 1187],3 (Class 3 The value of percent of control at 10^−7 M was more than 60% or the value of IC50 was more than 200 nM.)
16,COc1cc(CNC[C@H]2CC[C@@H](Nc3cc(N(C)C)c4ccccc4n3)CC2)cc2c1OCO2 [compound 1188],2 (Class 2: The value of percent of control at 10^−7 M was from 40% to 60% or the value of IC′50 was from 50 nM to 200 nM.)
17,COc1cc(CNC[C@H]2CC[C@@H](Nc3cc(N(C)C)c4ccccc4n3)CC2)cc(Br)c1OC [compound 1189],3 (Class 3 The value of percent of control at 10^−7 M was more than 60% or the value of IC50 was more than 200 nM.)
18,COc1ccc(CNC[C@H]2CC[C@@H](Nc3cc(N(C)C)c4ccccc4n3)CC2)cc1C [compound 1190],3 (Class 3 The value of percent of control at 10^−7 M was more than 60% or the value of IC50 was more than 200 nM.)
19,COc1cc(Br)c(CNC[C@H]2CC[C@@H](Nc3cc(N(C)C)c4ccccc4n3)CC2)cc1OC [compound 1191],3 (Class 3 The value of percent of control at 10^−7 M was more than 60% or the value of IC50 was more than 200 nM.)
20,Cc1oc(-c2ccccc2)cc1CNC[C@H]1CC[C@@H](Nc2cc(N(C)C)c3ccccc3n2)CC1 [compound 1192],3 (Class 3 The value of percent of control at 10^−7 M was more than 60% or the value of IC50 was more than 200 nM.)
21,COc1ccc(CNC[C@H]2CC[C@@H](Nc3cc(N(C)C)c4ccccc4n3)CC2)cc1OC [compound 1193],3 (Class 3 The value of percent of control at 10^−7 M was more than 60% or the value of IC50 was more than 200 nM.)
22,Cc1cc(CNC[C@H]2CC[C@@H](Nc3cc(N(C)C)c4ccccc4n3)CC2)ccc1O [compound 1194],3 (Class 3 The value of percent of control at 10^−7 M was more than 60% or the value of IC50 was more than 200 nM.)

row,SMILES,class
1,COc1cc(C)c(CNC[C@H]2CC[C@@H](Nc3cc(N(C)C)c4ccccc4n3)CC2)cc1C [compound 1195],3 (Class 3 The value of percent of control at 10^−7 M was more than 60% or the value of IC50 was more than 200 nM.)
2,COc1cccc(CNC[C@H]2CC[C@@H](Nc3cc(N(C)C)c4ccccc4n3)CC2)c1O [compound 1196],3 (Class 3 The value of percent of control at 10^−7 M was more than 60% or the value of IC50 was more than 200 nM.)
3,CN(C)c1cc(N[C@H]2CC[C@@H](CNCc3cc(C(F)(F)F)cc(Cl)c3F)CC2)nc2ccccc12 [compound 1197],3 (Class 3 The value of percent of control at 10^−7 M was more than 60% or the value of IC50 was more than 200 nM.)
4,CN(C)c1cc(N[C@H]2CC[C@@H](CNCc3cc(F)cc(C(F)(F)F)c3)CC2)nc2ccccc12 [compound 1198],3 (Class 3 The value of percent of control at 10^−7 M was more than 60% or the value of IC50 was more than 200 nM.)
5,COc1cc(CNC[C@H]2CC[C@@H](Nc3cc(N(C)C)c4ccccc4n3)CC2)cc(F)c1O [compound 1199],3 (Class 3 The value of percent of control at 10^−7 M was more than 60% or the value of IC50 was more than 200 nM.)
6,COc1cc(F)c(CNC[C@H]2CC[C@@H](Nc3cc(N(C)C)c4ccccc4n3)CC2)cc1OC [compound 1200],3 (Class 3 The value of percent of control at 10^−7 M was more than 60% or the value of IC50 was more than 200 nM.)
7,CCc1ccccc1CNC[C@H]1CC[C@@H](Nc2cc(N(C)C)c3ccccc3n2)CC1 [compound 1201],3 (Class 3 The value of percent of control at 10^−7 M was more than 60% or the value of IC50 was more than 200 nM.)
8,CN(C)c1cc(N[C@H]2CC[C@@H](CNCc3ccc(N(C)CCC#N)cc3)CC2)nc2ccccc12 [compound 1202],3 (Class 3 The value of percent of control at 10^−7 M was more than 60% or the value of IC50 was more than 200 nM.)
9,CN(C)c1cc(N[C@H]2CC[C@@H](CNCc3ccc(OCc4ccc(Br)cc4)cc3)CC2)nc2ccccc12 [compound 1203],3 (Class 3 The value of percent of control at 10^−7 M was more than 60% or the value of IC50 was more than 200 nM.)
10,CCOc1c(Br)cc(Br)cc1CNC[C@H]1CC[C@@H](Nc2cc(N(C)C)c3ccccc3n2)CC1 [compound 1204],3 (Class 3 The value of percent of control at 10^−7 M was more than 60% or the value of IC50 was more than 200 nM.)
11,COc1cccc(OC)c1CN[C@H]1CC[C@@H](Nc2nccc(N(C)C)n2)CC1 [compound 1205],3 (Class 3 The value of percent of control at 10^−7 M was more than 60% or the value of IC50 was more than 200 nM.)
12,CCOc1ccccc1CN[C@H]1CC[C@@H](Nc2nccc(N(C)C)n2)CC1 [compound 1206],3 (Class 3 The value of percent of control at 10^−7 M was more than 60% or the value of IC50 was more than 200 nM.)
13,CN(C)c1ccnc(N[C@H]2CC[C@@H](NCc3c[nH]c4ccccc34)CC2)n1 [compound 1207],3 (Class 3 The value of percent of control at 10^−7 M was more than 60% or the value of IC50 was more than 200 nM.)
14,COc1ccc(OC)c(CN[C@H]2CC[C@@H](Nc3nccc(N(C)C)n3)CC2)c1 [compound 1208],3 (Class 3 The value of percent of control at 10^−7 M was more than 60% or the value of IC50 was more than 200 nM.)
15,COc1ccc(CN[C@H]2CC[C@@H](Nc3nccc(N(C)C)n3)CC2)c2ccccc12 [compound 1209],3 (Class 3 The value of percent of control at 10^−7 M was more than 60% or the value of IC50 was more than 200 nM.)
16,COc1ccc2[nH]cc(CN[C@H]3CC[C@@H](Nc4nccc(N(C)C)n4)CC3)c2c1 [compound 1210],3 (Class 3 The value of percent of control at 10^−7 M was more than 60% or the value of IC50 was more than 200 nM.)
17,COc1ccc2ccccc2c1CN[C@H]1CC[C@@H](Nc2nccc(N(C)C)n2)CC1 [compound 1211],3 (Class 3 The value of percent of control at 10^−7 M was more than 60% or the value of IC50 was more than 200 nM.)
18,COc1cc(Br)cc(CN[C@H]2CC[C@@H](Nc3nccc(N(C)C)n3)CC2)c1O [compound 1212],3 (Class 3 The value of percent of control at 10^−7 M was more than 60% or the value of IC50 was more than 200 nM.)
19,CN(C)c1ccnc(N[C@H]2CC[C@@H](NCc3c[nH]c4ccc(Br)cc34)CC2)n1 [compound 1213],2 (Class 2: The value of percent of control at 10^−7 M was from 40% to 60% or the value of IC′50 was from 50 nM to 200 nM.)
20,COc1ccc(CN[C@H]2CC[C@@H](Nc3nccc(N(C)C)n3)CC2)c(OC)c1 [compound 1214],3 (Class 3 The value of percent of control at 10^−7 M was more than 60% or the value of IC50 was more than 200 nM.)
21,COc1ccc(CN[C@H]2CC[C@@H](Nc3nccc(N(C)C)n3)CC2)c(OC)c1OC [compound 1215],3 (Class 3 The value of percent of control at 10^−7 M was more than 60% or the value of IC50 was more than 200 nM.)
22,COc1cc(CN[C@H]2CC[C@@H](Nc3nccc(N(C)C)n3)CC2)cc(OC)c1O [compound 1216],3 (Class 3 The value of percent of control at 10^−7 M was more than 60% or the value of IC50 was more than 200 nM.)
